Assay results published in article PMC5838563, “Compounds producing an effective combinatorial regimen for disruption of HIV‐1 latency” (EMBO Molecular Medicine, 2017).

Columns and labels:
[1] = system: HIV‐1 LTR (Jurkat^Tat LTR‐DsRed clone #11); assay: mdHIV LTR‐DsRed reporter assay, clone #11; format: cell-based
Source text: HIV‐1 tends to integrate into actively transcribed regions of the host genome (Jordan et al, 2003; Lewinski et al, 2006; Ikeda et al, 2007). Each HIV‐1‐infected patient carries viral DNA integrated at different chromosomal locations, and as we have previously shown, the site of viral integration influences how latently infected T cells respond to different stimuli (Hashemi et al, 2016). Therefore, an ideal LRA should be capable of disrupting latency in cell models carrying integrated viral reporters at multiple different regions within the host genome. To assess this capability for the PH compounds, we used two additional previously described cell lines, designated Jurkat^Tat LTR‐DsRed clones #11, and #131, that carry a mini‐dual fluorescent HIV‐1 LTR reporter (mdHIV) at different chromosomal locations. The minivirus mdHIV has two fluorescent reporters in which DsRed expression is driven from the 5′ LTR, and eGFP is constitutively expressed from an internal EIF‐1α promoter (Fig 5A). […]
(§1) Figure 5 Effect of PH02 on HIV provirus integrated at different chromosomal locations • A The effect of PH compounds was analyzed using clonal lines bearing single‐copy integrations of the mini‐dual fluorescent HIV‐1 LTR reporter, md‐HIV, where GFP is constitutively expressed from the EIF‐1α internal promoter, and DsRed from the 5′ LTR. • B Fluorescence‐activated cell sorting (FACS) of cells bearing md‐HIV provirus indicates expression of EIF‐1α‐GFP and LTR‐dsRed. Stimulation of the md‐HIV lines generally causes a shift of the fluorescence profile from GFP^+/DsRed^− toward GFP^+/DsRed^+. • C, D Clone 11 or clone 131 was treated with the indicated concentrations of PH02 (left panels) or PH02 in combination with 10 nM PEP005 (right panels) for 24 h and cells analyzed by flow cytometry. Results presented as Δmean fluorescence intensity (ΔMFI) of DsRed expression and fold increase in DsRed expression for solo and combination treatments, respectively. Mean and SE are determined from three biological replicates (n = 3) and technical duplicates. […]

[2] = system: HIV‐1 LTR (Jurkat^Tat LTR‐DsRed clone #131); assay: mdHIV LTR‐DsRed reporter assay, clone #131; format: cell-based
Source text: HIV‐1 tends to integrate into actively transcribed regions of the host genome (Jordan et al, 2003; Lewinski et al, 2006; Ikeda et al, 2007). Each HIV‐1‐infected patient carries viral DNA integrated at different chromosomal locations, and as we have previously shown, the site of viral integration influences how latently infected T cells respond to different stimuli (Hashemi et al, 2016). Therefore, an ideal LRA should be capable of disrupting latency in cell models carrying integrated viral reporters at multiple different regions within the host genome. […]
as §1, with “cytometry.” for “cytometry. Results presented as Δmean fluorescence intensity (ΔMFI) of DsRed expression and fold increase in DsRed expression for solo and combination treatments, respectively. Mean and SE are determined from three biological replicates (n = 3) and technical duplicates.”

[3] = PH02 alone, 24 h, serial dilutions 28–0.2 μM
[4] = in combination with 10 nM PEP005, 24 h

CC(=O)Oc1ccccc1N(C=C1Sc2ccccc2C1=O)C(C)=O [PH02, 2‐{acetyl[(3‐oxo‐1‐benzothien‐2(3H)‐ylidene)methyl]amino}phenyl acetate]
above 1.75 μM: concentration reactivating viral transcription (LTR‐DsRed, ∆MFI) [1, 3] | PH02 concentration producing increased effects on HIV‐1 LTR transcription with PEP005 [1, 4] | concentration reactivating viral transcription (LTR‐DsRed, ∆MFI) [2, 3] | PH02 concentration producing increased effects on HIV‐1 LTR transcription with PEP005 [2, 4]
